From patent publication US10111854B2, “Synthesis and use of amine-containing flavonoids as potent anti-leishmanial agents” (The Hong Kong Polytechnic University, priority 2014, dated 2018)
Converted amounts (≈) assume the structure as drawn. Like-named read-outs stand apart in the source and are kept apart here.

How the values were obtained:
[1] = tested on: peritoneal elicited macrophages (PEM); test: Cytotoxicity, peritoneal elicited macrophages (PEM); format: cell-based, mouse; details: mouse
Water solubility = format: physicochemical
Source text: In terms of physicochemical properties, all flavonoid monomers listed as active against either L. amazonensis (Table 3A) or L. donovani (Table 3B) are smaller than 39, and have fewer H-bond donors and acceptors. They also have a lower calculated ACDLogP (1.978 to 4.537) than 39 (5.104), except FM05 (5.011), FM17 (5.101) and FM19 (5.451). The lower ACDLogP values mean more water soluble; better partition between hydrophilic and hydrophobic phases and potentially easier to be absorbed orally. Indeed, these flavonoid monomers are highly water soluble (up to about 40 mg/mL of the hydrochloride salt) whereas 39 is not (up to about 4 mg/ml).

[2] = tested on: L. donovani (LdAG83) promastigotes; test: Anti-promastigote activity, wild type L. donovani LdAG83; format: cell-based; details: Leishmania donovani; printed in HU3 column; footnote *: wild type LdAG83 used instead of HU3
[3] = Bioavailability study of flavonoid dimer 39, oral feeding vs i.v.; format: in vivo, Balb/c mice; details: in 50% PEG, 30 minutes
Procedure: Amine-linked flavonoid dimers are disclosed in prior studies to be sparingly soluble in aqueous medium. Their poor oral bioavailability is confirmed by in vivo study in mice. […] Plasma concentration of 39 was determined 30 minutes after oral feeding or i.v. administration. […] Such low bioavailability precluded 39 from being used as an oral antileishmanial agent in the future.

[4] = Pharmacokinetics study of FM09, FM09h and FM05b, iv and oral; format: in vivo, Balb/c mice; details: 50 mg/kg oral
Procedure: Animals were sacrificed at the indicated time point and plasma level of the corresponding flavonoids were determined using LC-MSMS. IC50 of corresponding flavonoids are indicated. Bioavailability (F) was calculated by dividing the dose-adjusted area under curve (AUC) of that of orally-fed over intravenously administered animals.

[5] = tested on: L. amazonensis promastigotes; test: Mitochondrial membrane potential (rhodamine 123) and survivors (MTS) of promastigotes; format: cell-based; details: for viability at 10 µM: Leishmania amazonensis, read-out: % of viable cells (MTS)
Procedure: 1×10^7 promastigotes were seeded into each well of 6-well plate. The promastigotes were incubated with different concentrations (0, 1.25, 2.5, 5 and 10 μM) of FM09 for 24 and 48 hr, respectively. After incubation, promastigotes were washed two times with 1×PBS and resuspended with 1000 μL of supplemented Schneider's Insect media containing 10 μg/mL of rhodamine 123 in an Eppendorf. The promastigotes were incubated with rhodamine 123 at room temperature for 40 min with shaking. After incubation, promastigotes were washed one time with cold 1×PBS and then re-suspended with 100 μL of 1×PBS. The fluorescent level of rhodamine 123 was measured with a microplate reader (excitation: 485 nm and emission: 520 nm).
L. amazonensis promastigotes were cultivated in different concentration (0, 1.25, 2.5, 5 and 10 μM) of FM09 for 24 hr or 48 hr. The promastigotes were washed and exposed to rhodamine 123 (10 μg/mL) for 40 min. The level of rhodamine 123 accumulation was measured at 520 nm using 485 nm as an excitation wavelength. 0.2% DMSO was used as a solvent control. The values were presented as mean±standard error of mean.

[6] = tested on: L. amazonensis LV78 promastigotes; test: Anti-promastigote activity (MTS assay), L. amazonensis LV78; format: cell-based; details: Leishmania amazonensis, 72 hours
Summary of the method: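 Promastigotes (1×10^5 per well) in Schneider's medium pH 6.9 with 10% FBS, exposed to serial compound concentrations for 72 h at 27 °C. Viability by MTS/PMS reduction over 4 h, OD 490 nm; IC50 derived.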

[7] = tested on: L. braziliensis UA847 amastigotes; test: Anti-amastigote activity in infected PEM, L. braziliensis UA847; format: cell-based; details: Leishmania braziliensis, 72 h, 3 days, Giemsa, read-out: Anti-amastigote activity IC50, L. baziliensis UA847
Summary of the method: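 Read-out was Giemsa-stained counts of amastigotes per 100 macrophages, used for IC50, after 72 h drug exposure at 37 °C of mouse peritoneal macrophages previously infected with late-log promastigotes.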

Row | solubility (Water solubility) [µg/mL] | IC50 [2] [µM] | Plasma level after oral feeding relative to i.v. group [3] [%] | Clearance from plasma after oral feeding [4] | bioavailability ([4]; Balb/c, mouse, plasma, 10 mg/kg iv, dose-adjusted AUC oral over iv, read-out: Bioavailability (F)) [%] | IC50 [6] [µM] | IC50 [7] [µM] | Compound | IC50 [1] [µM] | Mitochondrial potential (rhodamine 123 accumulation) ([5]; 0-10 μM, 24 hr and 48 hr, dose-dependent) | % of survivors (MTS) ([5]; 1.25 μM, 24 hr and 48 hr) | % of survivors (MTS) ([5]; 2.5 μM, 24 hr and 48 hr) | % of survivors (MTS) ([5]; 5 μM, 24 hr) [%] | % of survivors (MTS) ([5]; 5 μM, 48 hr) [%] | viability at 10 µM ([5]; 24 hr) [%] | viability at 10 µM ([5]; 48 hr) [%]
1 | ~4000 (≈ 5.52 mM) | 0.2 ± 0.03 | < 1 |  |  |  |  | O=c1cc(-c2ccc(OCCOCCN(CCOCCOc3ccc(-c4cc(=O)c5ccccc5o4)cc3)Cc3ccncc3)cc2)oc2ccccc12 [compound 39] | > 88 |  |  |  |  |  |  | 
2 |  |  |  | rapidly cleared | 14 | 1 ± 0.3 | 0.6 ± 0.1 | O=c1cc(-c2ccc(OCCOCCN(Cc3ccccn3)Cc3ccccn3)cc2)oc2ccccc12 [FM09, 2-(4-(2-(2-(bis(pyridin-2-ylmethyl)amino)ethoxy)ethoxy)phenyl)-4H-chromen-4-one] |  | drop of mitochondrial potential | about 100% | about 100% | 68 | 88 | 29 | 23
